Assays:
Pim1 = Pim1 (Homo sapiens, UniProt P11309); test: In vitro selection of DNA-templated macrocycle library against GST-fused target; format: binding; conditions: one round of selection; DNA-linked library member
Text: (§1) Multiple representatives were chosen from each protein class so that we could compare selection results within protein families. In total, we performed a single round of in vitro selection against 36 protein targets. Additionally, we also performed a selection for binding to GST (with no fused target protein) immobilized on glutathione-linked resin. Although successive rounds of selection (with or without DNA amplification and translation between rounds) can multiply net enrichment factors,^29 we hypothesized that recent advances in ultra high-throughput DNA sequencing would enable even modest enrichment factors to be robustly detected, and the findings in this work are the result of a single round of selection on each protein target.
(§2) Following in vitro selection, DNA templates linked to target-binding macrocycles were amplified in PCR reactions using primers containing “barcode” sequences specific to each selection (FIG. 3). We also amplified DNA templates from eight aliquots of the unselected library to determine the initial abundance of each library member. A set of 12 five-base barcodes used in pairwise combinations provided sufficient encoding complexity for one round of selection against 36 protein targets, a control selection against immobilized GST, and eight pre-selection library samples (Table 3). These barcodes were designed to differ by at least three bases from one another so that common DNA sequencing errors would not preclude barcode assignment. After affinity selection and PCR amplification, barcoded samples were combined in equimolar amounts and submitted for ultra high-throughput DNA sequencing^46,47 as a single sample.
(§3) To rapidly identify the DNA-linked macrocycles that survived target affinity selection, we used Solexa (Illumina) DNA sequencing technology.^48 Because standard Solexa sequencing read lengths at the time of this experiment were shorter than the length of our barcoded library templates (84 base pairs), the paired-end sequencing method, which provides both forward and reverse sequencing reads for each template, was used. We created a PERL computer program to analyze the large amount of data emerging from high-throughput sequencing. First, forward and reverse sequence reads were merged to give complete template sequences (FIG. 4a). Each complete DNA sequence was converted into a combination of a barcode (selection identity) and three codons (building block identities). Template sequences were then binned by barcode to deconvolute the results of each selection. The abundance fraction of each library member was determined within each selection by counting the number of corresponding DNA sequence occurrences and dividing by the total number of interpretable sequence reads for that selection. Finally, enrichment factors for each library member were computed by dividing post-selection abundance fraction by pre-selection abundance fraction. In total, we received 25.6 million paired forward and reverse sequence reads from two Solexa sequencing runs. Of these, all four codons (which require five out of six correct bases per codon for the building blocks, and three out of three correct bases per codon for the scaffold^24) and the selection barcode (which requires four out of five correct bases) could be conclusively assigned for 12.4 million sequences. As a result, we obtained ˜200,000 sequence reads for each selection, and 1.7 million sequence reads of the pre-selection library.
(§4) In vitro selections of the 13,824-membered library were conducted exactly as described above for the positive control selections. For each selection, 5 pmol of library were used. PCR amplification of selection survivors was performed with 5′-barcoded forward and reverse primers. Barcoded PCR amplicons were quantitated using Picogreen dsDNA quantitation reagent (Invitrogen), mixed in equimolar amounts, and submitted for high-throughput DNA sequencing.

MAPKAPK2 = MAPKAPK2 (Homo sapiens, UniProt P49137); test: as above; format: binding; conditions: one round of selection; DNA-linked library member
Sequence of MAPKAPK2 (P49137 whole entry): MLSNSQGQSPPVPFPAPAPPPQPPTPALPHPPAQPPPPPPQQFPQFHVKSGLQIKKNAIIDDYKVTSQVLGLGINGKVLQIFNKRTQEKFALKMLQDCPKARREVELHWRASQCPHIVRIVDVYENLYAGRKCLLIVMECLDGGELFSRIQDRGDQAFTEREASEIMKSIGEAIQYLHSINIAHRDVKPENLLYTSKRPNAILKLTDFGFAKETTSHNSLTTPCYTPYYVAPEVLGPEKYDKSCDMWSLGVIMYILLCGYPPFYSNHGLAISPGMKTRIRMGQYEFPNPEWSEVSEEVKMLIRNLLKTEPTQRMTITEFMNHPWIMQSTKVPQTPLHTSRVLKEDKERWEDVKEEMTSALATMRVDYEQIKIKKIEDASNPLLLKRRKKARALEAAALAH
Text: as §1, §2, §3, §4

Sequence of Pim1 (P11309 whole entry, the tested form may be a part): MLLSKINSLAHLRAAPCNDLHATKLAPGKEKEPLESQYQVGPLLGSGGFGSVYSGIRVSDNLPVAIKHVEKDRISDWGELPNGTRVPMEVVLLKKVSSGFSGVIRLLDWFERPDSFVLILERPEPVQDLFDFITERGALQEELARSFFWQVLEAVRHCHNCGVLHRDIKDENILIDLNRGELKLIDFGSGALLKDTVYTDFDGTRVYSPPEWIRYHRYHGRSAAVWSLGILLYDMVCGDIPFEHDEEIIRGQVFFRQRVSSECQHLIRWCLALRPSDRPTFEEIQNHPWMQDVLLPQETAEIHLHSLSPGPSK

Structure (SMILES) | enrichment upon selection for binding Pim1 (Pim1) | enrichment upon selection for binding MAPKAPK2 (MAPKAPK2)
NC(=O)[C@@H]1CCNC(=O)C=CC(=O)N[C@@H](C/C=C/c2ccccc2)C(=O)N[C@@H](CC2CCCCC2)C(=O)N[C@H](Cc2ccc(C(=O)c3ccccc3)cc2)C(=O)N1 [A12-B8-C10-D3] | 3.5 fold | 3 fold
NC(=O)[C@@H]1CNC(=O)C=CC(=O)N[C@@H](C/C=C/c2ccccc2)C(=O)N[C@@H](CC2CCCCC2)C(=O)N[C@H](Cc2ccc(C(=O)c3ccccc3)cc2)C(=O)N1 [A12-B8-C10-D4] | 10 fold | 3 fold
NC(=O)[C@@H]1CNC(=O)[C@@H](Cc2ccc(C(=O)c3ccccc3)cc2)NC(=O)[C@H](CC2CCCCC2)NC(=O)[C@H](C/C=C/c2ccccc2)NC(=O)C=CC(=O)N1 [A12-B8-C10-D8] | 6 fold | 2.5 fold
